Test results: PubChem BioAssay (NCI)
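1) Cells in 96-well plates. 2) Compound, 48 h, 5 concentrations. 3) Linear interpolation between surrounding doses. 4) Unreached endpoint = highest concentration. GI50: concentration for 50% inhibition of growth. TGI: total growth inhibition.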

Legend:
Assay in all cases: DTP human tumour cell line panel, 48 h
[1] = system: HS 578T breast
[2] = system: LOX IMVI melanoma
[3] = system: SF-268 CNS
[4] = system: SN12C renal
[5] = system: HCT-116 colon
[6] = system: OVCAR-4 ovarian
[7] = system: SK-MEL-2 melanoma
[8] = system: NCI-H522 lung
[9] = system: OVCAR-5 ovarian
[10] = system: A498 renal
[11] = system: NCI-H226 lung
[12] = system: EKVX NSCLC
[13] = system: CCRF-CEM leukemia
[14] = system: IGROV1 ovarian
[15] = system: SR leukemia
[16] = system: DU-145 prostate
[17] = system: 786-0 renal
[18] = system: HOP-62 NSCLC
[19] = system: HCC-2998 colon
[20] = system: SW-620 colon
[21] = system: UACC-257 melanoma
[22] = system: HCT-15 colon
[23] = system: HOP-92 NSCLC
[24] = system: U251 CNS
[25] = system: SK-MEL-5 melanoma
[26] = system: MOLT-4 leukemia
[27] = system: NCI/ADR-RES ovarian
[28] = system: MALME-3M melanoma
[29] = system: SNB-19 CNS
[30] = system: ACHN renal
[31] = system: A549 NSCLC
[32] = system: MDA-MB-231 breast
[33] = system: COLO 205 colon
[34] = system: T-47D breast
[35] = system: TK-10 renal
[36] = system: OVCAR-3 ovarian
[37] = system: MCF7 breast
[38] = system: UACC-62 melanoma
[39] = system: OVCAR-8 ovarian
[40] = system: SK-OV-3 ovarian
[41] = system: HL-60(TB) leukemia
[42] = system: K-562 leukemia
[43] = system: NCI-H23 lung
[44] = system: SK-MEL-28 melanoma
[45] = system: MDA-MB-435
[46] = system: UO-31 renal
[47] = system: HT29 colon
[48] = system: SF-539 CNS
[49] = system: M14 melanoma
[50] = system: NCI-H460 lung
[51] = system: RPMI-8226 leukemia
[52] = system: KM12 colon
[53] = system: BT-549 breast
[54] = system: SNB-75 CNS
[55] = system: PC-3 prostate
[56] = system: CAKI-1 renal

## NCCC(O)(P(=O)(O)O)P(=O)(O)O
[1]
  GI50: > 100 µM
  TGI: > 100 µM
[2]
  GI50: > 100 µM
  TGI: > 100 µM
[3]
  GI50: > 100 µM
  TGI: > 100 µM
[4]
  GI50: > 100 µM
  TGI: > 100 µM
[5]
  GI50: > 100 µM
  TGI: > 100 µM
[6]
  GI50: > 100 µM
  TGI: > 100 µM
[7]
  GI50: 4.43 µM
  TGI: 43.8 µM
[8]
  GI50: > 100 µM
  TGI: > 100 µM
[9]
  GI50: > 100 µM
  TGI: > 100 µM
[10]
  GI50: > 100 µM
  TGI: > 100 µM
[11]
  GI50: 14.1 µM
  TGI: 36.5 µM
[12]
  GI50: > 100 µM
  TGI: > 100 µM
[13]
  GI50: > 100 µM
  TGI: > 100 µM
[14]
  GI50: > 100 µM
  TGI: > 100 µM
[15]
  GI50: > 100 µM
  TGI: > 100 µM
[16]
  GI50: > 100 µM
  TGI: > 100 µM
[17]
  GI50: > 100 µM
  TGI: > 100 µM
[18]
  GI50: > 100 µM
  TGI: > 100 µM
[19]
  GI50: > 100 µM
  TGI: > 100 µM
[20]
  GI50: > 100 µM
  TGI: > 100 µM
[21]
  GI50: > 100 µM
  TGI: > 100 µM
[22]
  GI50: > 100 µM
  TGI: > 100 µM
[23]
  GI50: > 100 µM
  TGI: > 100 µM
[24]
  GI50: > 100 µM
  TGI: > 100 µM
[25]
  GI50: > 100 µM
  TGI: > 100 µM
[26]
  GI50: > 100 µM
  TGI: > 100 µM
[27]
  GI50: > 100 µM
  TGI: > 100 µM
[28]
  GI50: > 100 µM
  TGI: > 100 µM
[29]
  GI50: > 100 µM
  TGI: > 100 µM
[30]
  GI50: 36 µM
  TGI: > 100 µM
[31]
  GI50: > 100 µM
  TGI: > 100 µM
[32]
  GI50: > 100 µM
  TGI: > 100 µM
[33]
  GI50: > 100 µM
  TGI: > 100 µM
[34]
  GI50: > 100 µM
  TGI: > 100 µM
[35]
  GI50: > 100 µM
  TGI: > 100 µM
[36]
  GI50: > 100 µM
  TGI: > 100 µM
[37]
  GI50: 37 µM
  TGI: > 100 µM
[38]
  GI50: 29.1 µM
  TGI: > 100 µM
[39]
  GI50: 3.47 µM
  TGI: 35.6 µM
[40]
  GI50: > 100 µM
  TGI: > 100 µM
[41]
  GI50: > 100 µM
  TGI: > 100 µM
[42]
  GI50: > 100 µM
  TGI: > 100 µM
[43]
  GI50: > 100 µM
  TGI: > 100 µM
[44]
  GI50: > 100 µM
  TGI: > 100 µM
[45]
  GI50: > 100 µM
  TGI: > 100 µM
[46]
  GI50: > 100 µM
  TGI: > 100 µM
[47]
  GI50: > 100 µM
  TGI: > 100 µM
[48]
  GI50: > 100 µM
  TGI: > 100 µM
[49]
  GI50: > 100 µM
  TGI: > 100 µM
[50]
  GI50: > 100 µM
  TGI: > 100 µM
[51]
  GI50: > 100 µM
  TGI: > 100 µM
[52]
  GI50: > 100 µM
  TGI: > 100 µM
[53]
  GI50: > 100 µM
  TGI: > 100 µM
[54]
  GI50: > 100 µM
  TGI: > 100 µM

## CC(=O)N=c1ccc2nc3c(cc(N)c4ccccc43)oc-2c1
[1]
  TGI: > 23.8 µM
[3]
  GI50: 1.66 µM
  TGI: 3.43 µM
[4]
  GI50: 1.39 µM
  TGI: 2.9 µM
[5]
  GI50: 0.323 µM
  TGI: 1.24 µM
[6]
  GI50: 0.409 µM
  TGI: 1.64 µM
[7]
  GI50: 1.57 µM
  TGI: 3.34 µM
[8]
  GI50: 1.44 µM
  TGI: 3.47 µM
[9]
  GI50: 1.8 µM
  TGI: 3.94 µM
[10]
  GI50: 1.92 µM
  TGI: 6.87 µM
[11]
  TGI: > 39.1 µM
[12]
  GI50: 1.52 µM
  TGI: 4.54 µM
[13]
  GI50: 0.7 µM
  TGI: 5.65 µM
[14]
  GI50: 0.36 µM
  TGI: 1.89 µM
[15]
  GI50: 1.67 µM
  TGI: > 21.2 µM
[16]
  GI50: 1.66 µM
  TGI: 3.03 µM
[17]
  GI50: 1.46 µM
  TGI: 2.93 µM
[18]
  GI50: 0.573 µM
  TGI: 1.83 µM
[19]
  GI50: 0.503 µM
  TGI: 1.87 µM
[20]
  GI50: 0.745 µM
  TGI: 2.39 µM
[21]
  GI50: 0.467 µM
  TGI: 1.91 µM
[22]
  GI50: 0.935 µM
  TGI: 2.5 µM
[23]
  GI50: 1.4 µM
  TGI: 4.94 µM
[24]
  GI50: 1.43 µM
  TGI: 2.86 µM
[25]
  GI50: 0.33 µM
  TGI: 1.35 µM
[26]
  GI50: 0.353 µM
  TGI: 5.26 µM
[27]
  GI50: 1.62 µM
  TGI: 4.95 µM
[28]
  GI50: 1.39 µM
  TGI: 2.84 µM
[29]
  GI50: 1.71 µM
  TGI: 3.46 µM
[30]
  GI50: 1.34 µM
  TGI: 2.62 µM
[31]
  GI50: 1.08 µM
  TGI: 3.42 µM
[32]
  GI50: 1.25 µM
  TGI: 3.92 µM
[33]
  GI50: 1.11 µM
  TGI: 2.44 µM
[35]
  GI50: 2.64 µM
  TGI: 6.34 µM
[36]
  GI50: 0.207 µM
  TGI: 0.684 µM
[37]
  GI50: 0.753 µM
  TGI: 2.4 µM
[38]
  GI50: 1.41 µM
  TGI: 2.72 µM
[39]
  GI50: 1.31 µM
  TGI: 3.6 µM
[40]
  GI50: 1.92 µM
  TGI: 4.95 µM
[55]
  GI50: 1.05 µM
  TGI: 5.83 µM
[41]
  GI50: 0.279 µM
  TGI: 6.8 µM
[42]
  GI50: 0.389 µM
[43]
  GI50: 1.27 µM
  TGI: 4.25 µM
[44]
  GI50: 1.75 µM
  TGI: 3.26 µM
[56]
  GI50: 1.55 µM
  TGI: 3.17 µM
[45]
  GI50: 0.207 µM
  TGI: 0.421 µM
[46]
  GI50: 1.03 µM
  TGI: 2.46 µM
[47]
  GI50: 2.09 µM
  TGI: 4.62 µM
[48]
  GI50: 1.63 µM
  TGI: 3.05 µM
[49]
  GI50: 1.58 µM
  TGI: 3.86 µM
[50]
  GI50: 1.85 µM
  TGI: 4.24 µM
[51]
  GI50: 0.302 µM
  TGI: 1.76 µM
[52]
  GI50: 1.44 µM
  TGI: 2.87 µM
[53]
  GI50: 2.47 µM
  TGI: 7.46 µM
[54]
  GI50: 1.83 µM
  TGI: 3.34 µM
